Data on one molecule can be found in patent US7888042B2, “Methods for identifying insulin mimetics” (Ohio University, priority 2005, dated 2011).

Structures are written as SMILES.

Data set [1] concerns ob/ob mice. The data set can be described thus: Glucose tolerance test in ob/ob mice, oral dose. Type of data set: in vivo. Here is the method:
(§1) Either 6-8 week old male db/db mice or 8-12 week old male ob/ob mice were treated with aqueous solutions of α-PGG by either oral delivery (˜10 μL, A & B) or ip injection (˜50 μL, C, & D). (n=8-10, mean±SD, one-way ANOVA). α-PGG (●); vehicle (∘). α-PGG (20 mg/kg) was orally delivered without glucose to fasting db/db mice (A *, P<0.02; **, P<0.01; ***, P<0.001) or with glucose (0.4 g/kg body weight) to fasting ob/ob mice (B, glucose tolerance test). α-PGG (20 mg/kg) was ip injected into ob/ob mice on day 0 and day 4 (C). A single ip injection (20 mg/kg) of α-PGG was administered to ob/ob mice (D). Glucose (A, B, C) or insulin (D) was determined from sera or plasma isolated from tail vein blood. Animal studies. Genetically diabetic db/db mice or obese ob/ob mice were purchased from Jackson Lab. Male mice of 2-3 months of age were used. Unless otherwise stated, 10 mice (N=10) were used per group. α-PGG was either orally administered or intraperitoneally (ip) injected in the form of an aqueous solution at 20 mg/kg body weight with a 1-cc sterile plastic syringe. At different times after the α-PGG administration, blood or plasma was collected from the tail vein for measurement of glucose and insulin concentrations using commercial kits. Vehicle (aqueous solution) treated mice were used as controls and were statistically compared with the α-PGG treated mice. All animal studies were conducted in accord with the Ohio University guidelines for the use and care of laboratory animals.

Data set [2] deals with IR. Briefly: IR phosphorylation, Western blot. The note with it: CHO-IR cells, 20 or 40 μM, 15 min. The data set is classed as cell-based, Chinese hamster. Here is the method: (§2) (A) Glucose transport was measured by determining [^3H]-2-deoxyglucose uptake stimulated by either insulin or α-PGG in 3T3-L1 cells in the presence or absence of HNMPA-(AM)3, an inhibitor of IR tyrosine kinase activity (24); wortmannin, an inhibitor of PI 3-kinase (25), or cytochalasin B, an inhibitor of GLUT4 (26), (n=4, mean±SD). (B) Cells were induced by 20 or 40 μM α-PGG or 100 nM insulin for 15 min. Cell lysates were separated by PAGE and analyzed for phosphorylation of IR (in CHO-IR cells) or Akt (in adipocytes) using antibodies specific to the target proteins. (C) Cells were treated with α-PGG and insulin in a fashion similar to (B) and assayed for their respective PI-3 kinase activity with a radioactive TLC method (27). (D) In similar experiments, intact cells were analyzed by confocal microscopy for translocation of GLUT4 using anti-GLUT4 antibodies.
(§3) Protein phosphorylation/activation and GLUT4 translocation. To investigate signal transduction induced by α-PGG, proteins from 3T3-L1 adipocytes or CHO-IR cells (23), which were treated with α-PGG or insulin for 15 min, were isolated, separated by PAGE, blotted on nylon membranes, and analyzed by Western blotting with antibodies against either IR or Akt. […]
On the technique in general: Immunoblotting shows a protein as a band on a membrane.

The subject of data set [3] is PI-3 kinase. Briefly: PI-3 kinase activity, radioactive TLC method. The data set is classed as cell-based. As to conditions: CHO-IR cells. Here is the method:
as §2, §3

Data set [4] relates to ob/ob mice. The data set can be described thus: Plasma insulin in ob/ob mice, ip injection. Type of data set: in vivo. The note with it: single ip injection 20 mg/kg. Here is the method:
as §1, with “All animal studies were conducted in accord with the Ohio University guidelines for the use and care of laboratory animals.” left out

In data set [5] the test system is ob/ob mice. The data set can be described thus: Blood glucose in ob/ob mice, ip injection. As to conditions: ip 20 mg/kg on day 0 and day 4, P<0.001. Type of data set: in vivo. Here is the method:
as §1, with “All animal studies were conducted in accord with the Ohio University guidelines for the use and care of laboratory animals.” left out

The nature of data set [6]: Body weight, food intake and physical activity of treated mice. As to conditions: treated mice vs control mice. Type of data set: in vivo. Here is the method:
Animal studies. Genetically diabetic db/db mice or obese ob/ob mice were purchased from Jackson Lab. Male mice of 2-3 months of age were used. Unless otherwise stated, 10 mice (N=10) were used per group. α-PGG was either orally administered or intraperitoneally (ip) injected in the form of an aqueous solution at 20 mg/kg body weight with a 1-cc sterile plastic syringe. At different times after the α-PGG administration, blood or plasma was collected from the tail vein for measurement of glucose and insulin concentrations using commercial kits. Vehicle (aqueous solution) treated mice were used as controls and were statistically compared with the α-PGG treated mice. All animal studies were conducted in accord with the Ohio University guidelines for the use and care of laboratory animals.

For `O=C(OC[C@H]1O[C@H](OC(=O)c2cc(O)c(O)c(O)c2)[C@H](OC(=O)c2cc(O)c(O)c(O)c2)[C@@H](OC(=O)c2cc(O)c(O)c(O)c2)[C@@H]1OC(=O)c1cc(O)c(O)c(O)c1)c1cc(O)c(O)c(O)c1` [α-PGG, alpha 1,2,3,4,6-penta-O-galloyl-D-Glucopyranose], in data set [1] (oral 20 mg/kg), the “duration of blood glucose difference” value is reported as “at least 5 h” and the “largest difference in glucose levels vs control group” value is “about 20%”. In addition, in data set [1] (single oral dose 20 mg/kg with glucose 0.4 g/kg), the glucose tolerance entry is “significantly improved”. The “phosphorylation of the IR” value in data set [2] is “induces the phosphorylation of the IR”. Besides, in data set [3], the PI-3 kinase activity entry is “activates PI-3 kinase”. The plasma insulin levels entry in data set [4] (hyperinsulinemic ob/ob mice) was “significantly lower”. In addition, the “duration of anti-hyperinsulinemic effects” value in data set [4] (ob/ob mice) is reported as “at least 24 hours”. The blood glucose levels result in data set [5] is “significantly and consistently lowered”. In data set [6], the body weight result is recorded as “No significant changes”, the food intake entry is recorded as “No significant changes” and the physical activity result is “No significant changes”.
